What was measured:
[1] = test system: IL-6, IL-8, TNF-α and MCP-1 in primary human cerebellar astrocytes (HCA); experiment: Flow-cytometry assay of intracellular cytokine production in IL1-β-treated astrocytes; type: cell-based
Procedure: Flow cytometry. For each well of HCA in a 6-well plate, 2 mL of fresh media with GolgiPLUG (BD #555029, 1:1000) and GolgiSTOP (BD #554724, 1:1000) with 20 μM compound or vehicle (DMSO) and IL1-β 10 ng/mL or DPBS was added. The cells were incubated for 5 h at 37° C. Cells were collected with TrypLE and plated into a 96-well V-bottom plate for staining. The plate was centrifuged for 5 min, 1300 rpm, 4° C. to pellet cells, which were subsequently resuspended in 100 μl DPBS with 1 μl Zombie Violet (Biolegend #423113) and 5 μl Human Trustain FC block (Biolegend #422302) per well for 15 min at room temperature in the dark. The plate was centrifuged, supernatant was aspirated, and the cells were washed with 100 μl/well DPBS. Cells were fixed with 100 μl/well of Cytofix/Cytoperm (BD) for 20 min at 4° C. The plate was centrifuged, supernatant was aspirated, and cells were resuspended in 100 μl Permwash (BD) and incubated for 15 min at 4° C. The plate was centrifuged, supernatant was aspirated, and cells were incubated with 100 μl/well of Ab mix or isotype mix in Permwash (see below) for 20 min at 4° C., followed by centrifugation and 2× PermWash washes. The cells were resuspended in 100 ul DPBS and transferred to FACS tubes containing 200 ul of PBS (total volume per tube 300 μl) for analysis on FACS Analyzers (LSRII or Fortessa).
Primary human cerebellar astrocytes (HCA) were co-treated with 20 μM of each compound or vehicle (DMSO), 10 ng/mL IL1-β, and a protein transport inhibitor for 6 hours, and then processed for intracellular staining of pro-inflammatory cytokines IL-6, IL-8, TNF-α, and MCP-1. […]; in vitro IC50 values are for CK2 as reported in the literature).

IκB S32 = experiment: Immunoblot of IκB S32 in IL1-β-stimulated astrocytes; type: cell-based, human; conditions: after 5 hours
Procedure: Western blotting. […] Cells were dissociated with 1:1 Accutase:papain for 3 min at rt, pelleted for 5 min at 800 g, and washed twice with cold DPBS. Pellets were lysed with RIPA buffer (Sigma R0278) supplemented with Halt protease inhibitor cocktail (Thermo Fisher 78445) and clarified by centrifugation (16,000 g, 10 min, 4° C.). Protein concentration was determined by BCA assay (Thermo Fisher). Proteins were denatured in 1×LDS Buffer and 2.5% beta-mercaptoethanol (X) for 10 min at 70° C., separated on Bolt 4-12% Bis-Tris Plus polyacrylamide gels (Thermo Fisher), transferred to PVDF membranes using the iBlot 2 Dry Blotting System, and blocked with 0.1% casein-PBS (Bio-Rad) for 1 h at room temperature. The blots were incubated with primary antibodies overnight at 4° C. in PBS containing 0.1% casein and 0.2% Tween-20. Antibodies used: rabbit anti-CK2a1 (Bethyl #, 1:5000), rabbit anti-CK2a2 (Bethyl #, 1:5000), mouse anti-GAPDH (Fitzgerald #10-1501, 1:20,000), mouse anti-NF-KB (CST #6956S, 1:1000), pNF-KB S529 (TFS #14-9864-82, 1:100), LC3B (CST 2775, 1:1000), ACO2 (CST 6922, 1:1000), rabbit HMGB1 (Novus #NB1002322, 1:1000), mouse anti-IκBα (CST #4814S, 1:1000), mouse anti-IκBa pS32 (SC #8404, 1:500), HA-tag (Bethyl #A190-108A, 1:20000). […] The blots were imaged using the Odyssey CLx imaging system and blots were analyzed on the ImageStudio software (LI-COR). […]

AKT pS473 = experiment: Immunofluorescence of AKT pS473 in IL1β-stimulated primary astrocytes; type: cell-based; conditions: IL1-β for 5 h
Procedure: (§1) Immunotluorescence. […] After treatment, cells were fixed with 4% paraformaldehyde solution for 20 min at room temperature and washed 3× with DPBS for 10 min each. The cells were permeabilized using 5% horse serum and 10% Triton X in DPBS for 15 min at room temperature and blocked with 5% horse serum in PBS for 30 min at room temperature. Cells were incubated with primary antibodies in blocking buffer either overnight at 4° C. or for 2 hours at room temperature. After incubation, cells were washed 3× with PBS, blocked using 5% horse serum in PBS for 30 min at room temperature, and incubated with Cy3 red-labeled or AF488 green-labeled secondary antibodies diluted in blocking buffer for 1 hour at room temperature. The cells were washed once with PBS for 10 min, then counter-stained with DAPI. The cells were washed 3× with PBS and mounted with glass coverslips and Immu-Mount solution. Images were obtained with the Zeiss fluorescent microscope. […]

CK2 Y255 = experiment: Immunofluorescence of CK2 Y255 phosphorylation in nuclei of primary human astrocytes; type: cell-based; conditions: 20 μM, 5 h
Procedure: as §1

CK2α1 = experiment: CK2 levels in IL1-β-stimulated human primary astrocytes (Western blot); type: cell-based; conditions: after 5 hours
Procedure: Western blotting. […] Cells were dissociated with 1:1 Accutase:papain for 3 min at rt, pelleted for 5 min at 800 g, and washed twice with cold DPBS. Pellets were lysed with RIPA buffer (Sigma R0278) supplemented with Halt protease inhibitor cocktail (Thermo Fisher 78445) and clarified by centrifugation (16,000 g, 10 min, 4° C.). Protein concentration was determined by BCA assay (Thermo Fisher). Proteins were denatured in 1×LDS Buffer and 2.5% beta-mercaptoethanol (X) for 10 min at 70° C., separated on Bolt 4-12% Bis-Tris Plus polyacrylamide gels (Thermo Fisher), transferred to PVDF membranes using the iBlot 2 Dry Blotting System, and blocked with 0.1% casein-PBS (Bio-Rad) for 1 h at room temperature. The blots were incubated with primary antibodies overnight at 4° C. in PBS containing 0.1% casein and 0.2% Tween-20. Antibodies used: rabbit anti-CK2a1 (Bethyl #, 1:5000), rabbit anti-CK2a2 (Bethyl #, 1:5000), mouse anti-GAPDH (Fitzgerald #10-1501, 1:20,000), mouse anti-NF-KB (CST #6956S, 1:1000), pNF-KB S529 (TFS #14-9864-82, 1:100), LC3B (CST 2775, 1:1000), ACO2 (CST 6922, 1:1000), rabbit HMGB1 (Novus #NB1002322, 1:1000), mouse anti-IκBα (CST #4814S, 1:1000), mouse anti-IκBa pS32 (SC #8404, 1:500), HA-tag (Bethyl #A190-108A, 1:20000). […] The blots were imaged using the Odyssey CLx imaging system and blots were analyzed on the ImageStudio software (LI-COR).

COc1cc(-c2cc(=O)c3c(O)cc(O)cc3o2)ccc1O [CHR, chrysoeriol]
suppression of IL1-β-induced IL-6, IL-8, TNF-α and MCP-1 cytokine upregulation ([1]; 20 μM, human astrocytes): strong suppressive activity | summary of SAR data, activity class ([1]; at 20 μM, FIG. 5A): active | IκB S32 levels (IκB S32): decreased | AKT pS473 levels (AKT pS473): reduced | pCK2/CK2 in nuclei (CK2 Y255): reduced | CK2α1 levels (CK2α1): reduced to baseline

From patent publication US20240197890A1, “FLAVONE DERIVATIVES AND USES IN TARGETING CK2-MEDIATED DISEASES AND CONDITIONS” (Salk Institute for Biological Studies, priority 2020, published 2024)
